Reference: ChEMBL document CHEMBL1153985, “In vitro and in vivo SAR of pyrido[3,4-d]pyramid-4-ylamine based mGluR1 antagonists” (Bioorg Med Chem Lett, 2009)
Active and inactive are the calls of the source.

Key:
[1] = biological target: Metabotropic glutamate receptor 1 (Rattus norvegicus, UniProt P23385); test: Antagonist activity at rat mGluR1a expressed in CHO cells assessed as inhibition of glutamate-evoked increase in calcium […] preincubated 5 mins before glutamate challenge; type: functional, cell-based
Sequence of Metabotropic glutamate receptor 1 (Rattus norvegicus, UniProt P23385) (P23385 whole entry): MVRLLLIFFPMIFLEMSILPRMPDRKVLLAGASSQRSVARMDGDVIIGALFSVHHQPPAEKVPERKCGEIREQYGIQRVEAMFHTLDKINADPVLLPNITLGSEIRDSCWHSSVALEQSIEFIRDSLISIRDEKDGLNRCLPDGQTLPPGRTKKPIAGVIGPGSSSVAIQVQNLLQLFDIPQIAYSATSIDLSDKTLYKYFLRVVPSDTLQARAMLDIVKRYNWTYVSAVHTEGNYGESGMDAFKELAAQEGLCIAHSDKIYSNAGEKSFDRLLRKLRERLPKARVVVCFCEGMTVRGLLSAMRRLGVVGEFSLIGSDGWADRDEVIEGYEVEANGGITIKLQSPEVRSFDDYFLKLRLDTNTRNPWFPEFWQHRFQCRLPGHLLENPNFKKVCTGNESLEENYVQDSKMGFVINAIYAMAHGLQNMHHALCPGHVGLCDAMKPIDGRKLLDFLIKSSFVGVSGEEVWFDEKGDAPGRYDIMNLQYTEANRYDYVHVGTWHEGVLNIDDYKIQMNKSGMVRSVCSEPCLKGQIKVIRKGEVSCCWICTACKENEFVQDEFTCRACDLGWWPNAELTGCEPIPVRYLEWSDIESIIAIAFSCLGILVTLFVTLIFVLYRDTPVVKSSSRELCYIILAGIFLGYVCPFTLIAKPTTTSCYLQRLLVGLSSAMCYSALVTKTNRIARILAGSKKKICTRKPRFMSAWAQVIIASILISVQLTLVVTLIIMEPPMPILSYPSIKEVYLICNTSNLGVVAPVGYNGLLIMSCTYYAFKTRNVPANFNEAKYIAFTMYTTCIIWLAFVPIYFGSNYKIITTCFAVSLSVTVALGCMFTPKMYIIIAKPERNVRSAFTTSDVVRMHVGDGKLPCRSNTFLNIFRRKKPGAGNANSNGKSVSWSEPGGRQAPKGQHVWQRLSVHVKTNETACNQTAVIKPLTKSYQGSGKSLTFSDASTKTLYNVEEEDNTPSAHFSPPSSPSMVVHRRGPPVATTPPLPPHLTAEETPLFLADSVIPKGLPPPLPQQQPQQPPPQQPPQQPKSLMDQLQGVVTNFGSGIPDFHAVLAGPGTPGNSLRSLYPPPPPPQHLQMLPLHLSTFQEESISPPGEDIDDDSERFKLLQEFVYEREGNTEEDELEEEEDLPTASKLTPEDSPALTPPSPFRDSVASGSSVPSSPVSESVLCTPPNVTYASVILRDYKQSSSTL

[2] = Lipophilicity, log D of the compound; type: physicochemical; conditions: octanol/water
Rattus norvegicus [3] = test: Antinociceptive activity in anaesthetized rat assessed as maximal inhibition of noxious pinch-induced electromyograph response at 8 to 16 fold free Ki concentration in cerebrospinal fluid measured after 1 hr; type: functional, organism-based
Liver microsomes [4] = test: Metabolic stability in human liver microsomes assessed as intrinsic clearance; type: ADME, Microsome
[5] = Ratio of free drug level in cerebrospinal fluid to steady state unbound plasma in iv dosed rat; type: ADME, organism-based
[6] = biological target: Metabotropic glutamate receptor 1 (Homo sapiens, UniProt Q13255); test: Antagonist activity at mGluR1; type: functional
Sequence of Metabotropic glutamate receptor 1 (Homo sapiens, UniProt Q13255) (Q13255 whole entry): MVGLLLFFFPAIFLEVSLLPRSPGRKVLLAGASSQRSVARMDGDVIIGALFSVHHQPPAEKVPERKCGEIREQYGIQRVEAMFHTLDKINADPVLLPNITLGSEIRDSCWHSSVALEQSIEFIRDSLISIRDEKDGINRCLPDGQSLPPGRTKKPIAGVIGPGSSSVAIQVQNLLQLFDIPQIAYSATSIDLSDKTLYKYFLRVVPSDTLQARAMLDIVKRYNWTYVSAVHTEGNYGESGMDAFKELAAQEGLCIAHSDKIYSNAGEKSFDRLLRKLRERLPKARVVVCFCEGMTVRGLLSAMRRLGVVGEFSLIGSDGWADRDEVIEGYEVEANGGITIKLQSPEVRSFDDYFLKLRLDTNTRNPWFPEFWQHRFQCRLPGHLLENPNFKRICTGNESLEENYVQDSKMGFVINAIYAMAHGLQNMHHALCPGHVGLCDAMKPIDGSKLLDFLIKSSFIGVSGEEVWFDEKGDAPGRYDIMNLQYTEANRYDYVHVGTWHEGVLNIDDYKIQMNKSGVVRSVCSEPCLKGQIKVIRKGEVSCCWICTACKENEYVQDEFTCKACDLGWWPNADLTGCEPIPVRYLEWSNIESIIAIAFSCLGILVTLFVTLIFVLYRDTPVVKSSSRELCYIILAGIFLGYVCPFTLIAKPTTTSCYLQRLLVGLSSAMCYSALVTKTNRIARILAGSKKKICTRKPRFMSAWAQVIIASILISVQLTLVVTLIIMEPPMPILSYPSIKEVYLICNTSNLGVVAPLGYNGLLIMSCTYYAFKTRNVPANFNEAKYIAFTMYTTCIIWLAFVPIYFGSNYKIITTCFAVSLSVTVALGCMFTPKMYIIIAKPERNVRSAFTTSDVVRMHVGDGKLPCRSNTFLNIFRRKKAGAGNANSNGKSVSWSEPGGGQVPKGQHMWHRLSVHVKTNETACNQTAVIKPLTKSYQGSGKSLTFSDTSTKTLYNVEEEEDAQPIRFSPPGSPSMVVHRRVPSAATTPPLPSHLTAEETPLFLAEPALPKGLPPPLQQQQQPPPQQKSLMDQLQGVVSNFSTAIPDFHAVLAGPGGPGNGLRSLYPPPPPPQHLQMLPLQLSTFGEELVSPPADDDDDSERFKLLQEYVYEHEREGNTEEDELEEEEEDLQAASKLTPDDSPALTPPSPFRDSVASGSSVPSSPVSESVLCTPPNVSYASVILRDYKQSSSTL

[7] = Solubility of the compound; type: physicochemical
Rattus norvegicus [8] = test: Antinociceptive activity in anaesthetized rat assessed as inhibition of low threshold tactile stimulus-induced electromyograph response at 22 mg/kg, iv administered as bolus dose for 30 seconds and 9.6 mg/kg/hr, iv administered via infusion measured after 1 hr; type: functional, organism-based
Liver microsomes [9] = test: Metabolic stability in rat liver microsomes assessed as intrinsic clearance; type: ADME, Microsome
[10] = Clearance in rat at 1 mg/kg; type: ADME, organism-based; set-up: dose 1 mg/kg; conditions: in vivo
Rattus norvegicus [11] = test: Antinociceptive activity in anaesthetized rat assessed as maximal inhibition of noxious pinch-induced electromyograph response at 10 fold free Ki concentration in cerebrospinal fluid measured after 1 hr; type: functional, organism-based
Rattus norvegicus [12] = test: Toxicity in anaesthetized electromyograph pinch rat model assessed as effect on sensory input to spinal cord at 22 mg/kg, iv administered as bolus dose for 30 seconds and 9.6 mg/kg/hr, iv administered via infusion; type: organism-based; conditions: in vivo
[13] = Protein binding in rat plasma at 1 mg/kg; type: ADME, organism-based; set-up: dose 1 mg/kg; conditions: read-out: PPB (converted)
[14] = biological target: Metabotropic glutamate receptor 5 (Homo sapiens, UniProt P41594); test: Antagonist activity at mGluR5; type: functional
Sequence of Metabotropic glutamate receptor 5 (P41594 whole entry): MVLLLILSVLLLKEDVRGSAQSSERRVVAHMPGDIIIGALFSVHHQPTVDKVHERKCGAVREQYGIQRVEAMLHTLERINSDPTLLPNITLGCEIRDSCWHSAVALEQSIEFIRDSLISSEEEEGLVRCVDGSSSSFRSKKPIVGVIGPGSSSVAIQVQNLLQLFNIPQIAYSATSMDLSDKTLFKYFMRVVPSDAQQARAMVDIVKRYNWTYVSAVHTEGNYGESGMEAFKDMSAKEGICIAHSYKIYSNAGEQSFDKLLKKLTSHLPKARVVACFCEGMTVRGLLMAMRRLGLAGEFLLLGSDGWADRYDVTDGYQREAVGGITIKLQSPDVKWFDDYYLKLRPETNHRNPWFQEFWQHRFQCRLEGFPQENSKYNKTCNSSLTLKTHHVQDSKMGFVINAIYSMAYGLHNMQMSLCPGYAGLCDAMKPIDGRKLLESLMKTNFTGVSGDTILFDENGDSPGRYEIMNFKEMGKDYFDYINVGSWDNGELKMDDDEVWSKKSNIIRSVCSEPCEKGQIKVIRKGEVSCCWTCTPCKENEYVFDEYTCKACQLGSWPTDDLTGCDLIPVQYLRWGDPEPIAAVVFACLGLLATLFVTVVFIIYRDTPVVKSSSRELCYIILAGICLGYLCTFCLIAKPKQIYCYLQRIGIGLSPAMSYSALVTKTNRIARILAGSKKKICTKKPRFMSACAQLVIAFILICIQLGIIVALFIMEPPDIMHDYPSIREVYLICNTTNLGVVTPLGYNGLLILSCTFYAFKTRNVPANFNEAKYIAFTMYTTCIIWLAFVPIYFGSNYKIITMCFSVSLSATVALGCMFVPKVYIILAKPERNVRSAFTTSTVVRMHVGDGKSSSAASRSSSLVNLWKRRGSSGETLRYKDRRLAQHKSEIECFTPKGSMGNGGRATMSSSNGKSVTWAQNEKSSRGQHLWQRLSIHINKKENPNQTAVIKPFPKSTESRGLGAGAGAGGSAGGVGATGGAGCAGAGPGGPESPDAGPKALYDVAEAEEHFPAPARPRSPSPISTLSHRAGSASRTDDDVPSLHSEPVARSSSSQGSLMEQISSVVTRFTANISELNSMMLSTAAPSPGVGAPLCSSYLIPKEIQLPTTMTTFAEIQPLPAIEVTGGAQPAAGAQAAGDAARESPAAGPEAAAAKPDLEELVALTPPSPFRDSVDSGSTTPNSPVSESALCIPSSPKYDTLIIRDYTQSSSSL

[15] = Volume of distribution in rat at 1 mg/kg; type: ADME, organism-based; set-up: dose 1 mg/kg; conditions: in vivo
[16] = Half life in rat at 1 mg/kg; type: ADME, organism-based; set-up: dose 1 mg/kg; conditions: in vivo
Rattus norvegicus [17] = test: Antinociceptive activity in anaesthetized rat assessed as inhibition of noxious pinch-induced electromyograph response at 22 mg/kg, iv administered as bolus dose for 30 seconds and 9.6 mg/kg/hr, iv administered via infusion measured after 1 hr; type: functional, organism-based
Rattus norvegicus [18] = test: Free plasma concentration in anaesthetized electromyograph pinch rat model at 22 mg/kg, iv administered as bolus dose for 30 seconds and 9.6 mg/kg/hr, iv administered via infusion; type: ADME, organism-based; conditions: in vivo
[19] = Oral bioavailability in rat at 1 mg/kg; type: ADME, organism-based; conditions: in vivo
Rattus norvegicus [20] = test: Analgesic activity in awake rat at 0.3 mg/kg, iv administered as bolus dose for 30 seconds and 0.3 mg/kg/hr, iv administered via infusion measured after 1 hr; type: functional, organism-based
Rattus norvegicus [21] = test: Antinociceptive activity in anaesthetized rat assessed as inhibition of noxious pinch-induced electromyograph response at 0.3 mg/kg, iv administered as bolus dose for 30 seconds and 0.3 mg/kg/hr, iv administered via infusion measured after 1 hr; type: functional

`C[C@H](Nc1ncnc2cnc(N(C)C)cc12)c1ccccc1` gave a Ki [1] of 1400 nM.
In the case of `c1nc(NC2CCCCCC2)c2cc(OCCN3CCOCC3)ncc2n1`, the Ki [1] is reported as 6 nM, the logD [2] is reported as 3.4 and the inhibition (Rattus norvegicus [3]) is reported as “Active”. It also gave a clearance (Liver microsomes [4]) of 24 µL/min/mg and a Kp uu [5] of 0.5.
`COCCOc1cc2c(NC3CCCCC3)ncnc2cn1` showed a Ki [1] of 101 nM.
With `c1ccc2c(c1)CC(Nc1ncnc3ccccc13)C2` the Ki [1] was 34 nM.
For `OCCOCCNc1cc2c(NC3Cc4ccccc4C3)ncnc2cn1`, the Ki [1] was 3 nM, the IC50 [6] was 3 nM and the solubility [7] was “Insoluble”. For the same compound, the inhibition (Rattus norvegicus [8]) was “inactive”, the clearance (Liver microsomes [9]) was 30 µL/min/mg and the logD [2] was 3. The clearance [10] was 26 mL/min/kg, the inhibition (Rattus norvegicus [11]) was “Active” and the Activity (Rattus norvegicus [12]) was “Non-toxic”. It also gave a fraction unbound [13] of 0.19, an IC50 [14] greater than 3000 nM and a Vd [15] of 0.6 L/kg. For the same compound, the half-life [16] was 18 min, the clearance (Liver microsomes [4]) was less than 7 µL/min/mg and the Kp uu [5] was 0.02. The inhibition (Rattus norvegicus [17]) was “Active”, the Cp (Rattus norvegicus [18]) was greater than 1000 nM and the bioavailability [19] was 33%.
`OCCNc1cc2c(NC3Cc4ccccc4C3)ncnc2cn1` gave a Ki [1] of 21 nM.
In the case of `Nc1cc2c(Nc3ccc(F)c(Cl)c3)ncnc2cn1`, the IC50 [6] is reported as 300 nM.
In the case of `OCCOc1cc2c(NC3CCCCC3)ncnc2cn1`, the Ki [1] is reported as 177 nM.
For `c1ccc2c(c1)CC(Nc1cc3c(NC4Cc5ccccc5C4)ncnc3cn1)C2`, the Ki [1] was 31 nM.
`CCCC(C)Nc1ncnc2cnc(N(C)C)cc12` (centres undefined) showed a Ki [1] of 858 nM.
Work on `CN(C)CCNc1cc2c(NC3Cc4ccccc4C3)ncnc2cn1` yielded a Ki [1] of 102 nM.
With `CNc1cc2c(N(C)C3Cc4ccccc4C3)ncnc2cn1` the Ki [1] was 54 nM.
Compound `NCCNc1cc2c(NC3CCCCC3)ncnc2cn1` has a Ki [1] of 2200 nM.
`COCCNc1cc2c(NC3Cc4ccccc4C3)ncnc2cn1` showed a Ki [1] of 5 nM.
For `OCCNc1cc2c(NCCO)ncnc2cn1`, the Ki [1] was 6150 nM.
In the case of `CN(C)c1cc2c(NC3CCCCC3)ncnc2cn1`, the Ki [1] is reported as 199 nM.
With `c1ccc2c(NC3CCCCC3)ccnc2c1` the Ki [1] was 6160 nM.
For `c1ccc2c(NC3CCCCC3)ncnc2c1`, the Ki [1] was 27 nM.
`O=C1CCCN1CCOc1cc2c(NC3CCCCC3)ncnc2cn1` showed a Ki [1] of 20 nM.
`CNc1ncnc2cnc(NC3Cc4ccccc4C3)cc12` showed a Ki [1] of 160 nM.
With `OCCCOc1cc2c(NC3CCCCC3)ncnc2cn1` the Ki [1] was 33 nM.
For `CN1CC[C@]23c4c5ccc(O)c4O[C@H]2[C@@H](O)C=C[C@H]3[C@H]1C5` [MORPHINE], the Activity (Rattus norvegicus [20]) was “Active” and the inhibition in vivo at 0.3 mg/kg (Rattus norvegicus [21]) was 40%.
With `c1nc(NC2CCCCC2)c2cc(NCCN3CCOCC3)ncc2n1` the Ki [1] was 10 nM, the logD [2] was 2.8 and the Kp uu [5] was 0.07.
With `NCCCNc1cc2c(NC3CCCCC3)ncnc2cn1` the Ki [1] was 200 nM.
With `CNc1cc2c(NC3Cc4ccccc4C3)ncnc2cn1` the Ki [1] was 14 nM, the logD [2] was 2.9 and the Kp uu [5] was 0.06.
Work on `c1ccc2c(c1)CC(Nc1nccc3ccccc13)C2` yielded a Ki [1] of 1650 nM.
With `COc1cc2c(NC3Cc4ccccc4C3)ncnc2cn1` the Ki [1] was 115 nM.
Work on `CN(C)c1cc2c(NC3Cc4ccccc4C3)ncnc2cn1` yielded a Ki [1] of 185 nM.
In the case of `c1ccc2c(OC3CCCCC3)ncnc2c1`, the Ki [1] is reported as 694 nM.
`OCCNc1ncnc2cnc(NC3Cc4ccccc4C3)cc12` showed a Ki [1] of 125 nM.
With `COCCNc1cc2c(NC3CCCCC3)ncnc2cn1` the Ki [1] was 11 nM.
Compound `CN(C)c1cc2c(N(C)C3Cc4ccccc4C3)ncnc2cn1` has a Ki [1] of 300 nM.
With `c1nc(NC2CCCCC2)c2cc(OCCN3CCOCC3)ncc2n1` the Ki [1] was 42 nM.
